# Source: EP0405998A1, “Antibiotic agents” (priority 1989, dated 1991)
# Where two headings read alike, the source gives them in different places.
# Columns and labels:
# [1] = tested on: Candida albicans; assay: microbroth dilution assay, minimum fungicidal concentration (MFC); format: cell-based
# Procedure: (§1) The activity may be seen in a microbroth dilution assay employing as medium a Yeast Nitrogen Base (Difco) with 1% dextrose (YNBD) as the medium. In carrying out the assay, Compound IB, IC-1 and IC-2 were solubilized in 10 percent dimethyl sulfoxide (DMSO) and diluted to 2560 µg/ml. The compounds were then diluted to 256 µg/ml in YNBD. 0.15 ml of the suspension was dispensed to the top row of a 96-well plate (each well containing 0.15 ml of YNDB) resulting in a drug concentration of 128 µg/ml. Two-fold dilutions were then made from the top row to obtain final drug concentrations ranging from 128 to 0.06 µg/ml.
# (§2) The yeast cultures, maintained on Sabouraud dextrose agar were transferred to YM broth (Difco) and incubated overnight at 35°C with shaking (250 rpm). After incubation, each culture was diluted in sterile water to yield a final concentration of 1-5 x 10⁶ colony forming units (CFU)/ml.
# (§3) 96-well microplates were inoculated using a MIC-2000 (Dynatech) which delivers 1.5 µl per well yielding a final inoculum per well of 1.5-7.5 x 10³ cells. The microplates were incubated at 35°C for 24 hours. The minimum inhibitory concentrations (MICs) were recorded as the lowest concentrations of drug showing no visible growth.
# (§4) After recording the MIC, the plates were shaken to resuspend the cells. Thereafter, […] samples from the wells in the 96-well microplate were transferred to a single well tray containing Sabouraud dextrose agar. The inoculated trays were incubated 24 hours at 28°C and then read. The MFC is defined as the lowest concentration of drug showing no growth or less than 4 colonies per spot.
# [2] = tested on: Candida parapsilosis; assay: as above; format: cell-based; conditions: Lodderomyces parapsilosis, YNBD medium
# Procedure: as §1, §2, §3, §4
# [3] = tested on: Candida tropicalis; assay: as above; format: cell-based; conditions: read-out: Minimum Fungicidal Concentration
# Procedure: as §1, §2, §3, §4
# [4] = tested on: red blood cells; assay: titration/hemolysis assay, red blood cell lysis; format: cell-based, CD-1 female mice; conditions: highest drug concentration that did not lyse the red blood cells; 25°C, two hours; 5 percent dextrose
# Procedure: Compound I or a component thereof has potential as a replacement for a known antifungal agent which while effective as an antifungal agent is of limited utility for having lytic effect on red blood cells at low dose levels. This property was discovered in a standard titration/hemolysis assay using fresh blood drawn from CD-1 female mice. In a representative assay, a concentration of Compound IB in the range of from 0.39 to 400 µg/ml in 5 percent dextrose and a drug free control were employed.
# In carrying out the determination, the assay tubes prepared by mixing together 2 milliliters of appropriate drug dilution and 0.5 milliliter of red blood cell suspension were gently shaken to mix the contents and then the tubes were incubated at 25°C for two hours. At the end of this time, the tubes were examined visually for complete or partial red blood cell hemolysis and compared to a drug free control. […] The MLC for Compound IB was greater than 400 µg/ml.
# [5] = tested on: Pneumocystis carinii; assay: Pneumocystis carinii infection in immunosuppressed mice, lung cyst count; format: in vivo, C3H/He mice; conditions: 2.0 mg/kg intraperitoneally twice daily, lung tissue
# Procedure: In a representative study on the effectiveness of Compound IB, ten male C3H/He mice, weighing 22-24 gms. each, were immunosuppressed by the addition of dexamethasone to the drinking water (8.0 mg/L) for six weeks to induce the development of P. carinii infections. To enhance the infection the mice were also maintained on a low protein diet. At the beginning of the seventh week the mice were divided into two groups. Both groups continued to receive dexamethasone in the drinking water and low protein diet for the remainder of the study. Mice in Group I were injected intraperitoneally twice daily with 0.5 ml of a 10% dimethylsulfoxide (DMSO) solution as a vehicle control. Mice in Group II were injected intraperitoneally twice daily with 0.5 ml of sterile water containing 0.05 mg of compound IB (dissolved in DMSO, final concentration of DMSO is 10%, actual dose was 2.0 mg/kg). […]
# At the end of the treatment period (a total of eight weeks immunosuppression) the animals were sacrificed and the lung tissue removed. The tissue was then processed to determine the number of cysts for each animal. Compound IB reduced the number of cysts by 84% as compared to the control animals. […]
Compound,"MFC ([1]; read-out: Minimum Fungicidal Concentration, Candida albicans MY 1028, YNBD medium) [µg/mL]","MFC ([1]; read-out: Minimum Fungicidal Concentration, Candida albicans MY 1055, YNBD medium) [µg/mL]","MFC ([1]; read-out: Minimum Fungicidal Concentration, Candida albicans MY 1208, YNBD medium) [µg/mL]","MFC ([1]; read-out: Minimum Fungicidal Concentration, Candida albicans MY 1585, YNBD medium) [µg/mL]","MFC ([1]; read-out: Minimum Fungicidal Concentration, Candida albicans MY 1750, YNBD medium) [µg/mL]","MFC ([1]; read-out: Minimum Fungicidal Concentration, Candida albicans MY 1783, YNBD medium) [µg/mL]","MFC ([2]; read-out: Minimum Fungicidal Concentration, Candida parapsilosis MY 1009) [µg/mL]","MFC ([2]; read-out: Minimum Fungicidal Concentration, Candida parapsilosis MY 1010) [µg/mL]",MFC [3] [µg/mL],minimum lytic concentration (MLC) [4],reduced the number of cysts as compared to the control animals ([5]; treatment period two weeks) [%],reduced the number of cysts as compared to the control animals ([5]; treatment period one week) [%]
"CCC(C)CC(C)CCCCCCCCC(=O)NC1CCC(O)NC(=O)C2C(O)C(C)CN2C(=O)C(C(O)CC(N)=O)NC(=O)C(CCc2ccc(O)cc2)NC(=O)C2CC(O)CN2C(=O)C(C(C)O)NC1=O (stereo not shown) [Compound IB, 1-[5-hydroxy N²-(10, 12-dimethyl-1-oxotetra-decyl)-ornithine]-4-[4-(4-hydroxyphenyl)-2-amino-butanoic acid]-5-(3-hydroxyglutamine) echinocandin B]",1,0.5,2,1,1,2,16,8,2,greater than 400 µg/ml,84,
"C[C@@H]1[C@H](O)[C@@H](C)/C=C/C=C/C=C/C=C/C=C/C=C/C=C/[C@H](O[C@@H]2O[C@H](C)[C@@H](O)[C@H](N)[C@@H]2O)C[C@@H]2O[C@](O)(C[C@@H](O)C[C@@H](O)[C@H](O)CC[C@@H](O)C[C@@H](O)CC(=O)O[C@H]1C)C[C@H](O)[C@H]2C(=O)O [amphotericin B, reference compound]",,,,,,,,,,12.5 µg/mL,,
"1-[N²-(10,12-dimethyl-1-oxotetradecyl)ornithine]-4-[4-(4-hydroxyphenyl)-2-aminobutanoic acid]-5-(3-hydroxyglutamine)echinocandin B [Compound IC]",,,,,,,,,,,,66
